Experiments:
[1] = Local administration of radiolabelled TTA, presence in coronary arteries; type: in vivo; settings: administered locally in two extra pigs; after 4 and 6 weeks
[2] = tested on: strains of Escherichia coli; assay: Tests for mutagenic activity in bacterial strains; type: cell-based; settings: E. coli; 3–1000 mg/plate (TTA), 2–5000 mg/plate (TSA)
From the text: (§1) Tests for mutagenic activity have been performed by Covance Laboratories Limited, England. […] Furthermore, TTA was not mutagenic when tested in mouse lymphoma cells […] L5178Y.

[3] = tested on: strains of Salmonella typhimurium; assay: Tests for mutagenic activity in bacterial strains; type: cell-based; settings: S. typhimurium; 3–1000 mg/plate (TTA), 2–5000 mg/plate (TSA)
From the text: as §1

[4] = Plasma lipid lowering on feeding moderate doses to animals; type: in vivo, rats, mice, rabbits and dogs; settings: for potency in lowering plasma triacylglycerols and cholesterol: compared with polyunsaturated fatty acids like EPA
From the text: (§2) Feeding moderate doses of TTA to animals like rats, mice, rabbits and dogs decreased both plasma cholesterol and triacylglycerol levels within days of treatment.

[5] = tested on: cultured Chinese hamster ovary cells; assay: Chromosomal aberrations in cultured Chinese hamster ovary cells; type: cell-based; settings: CHO cells, doses tested 12–140 mg/ml
[6] = tested on: restenosis (iliac artery); assay: Prevention of restenosis in rabbits given TTA orally, quantitative angiography after iliac balloon angioplasty; type: in vivo, Chinchilla (Chbb:CH) rabbits; settings: for diameter artery (Ds) / dilatation/stenosis (Dr − Ds)/Dr / reference diameter (Dr): TTA 800 mg daily oral
Procedure: Fourteen Chinchilla (Chbb:CH) rabbits of either sex were randomised either to receive supplement with TTA fatty acids 800 mg daily (mean weight 3.6±0.09 kg) or to placebo (mean weight 3.5±0.47 kg).
The animals were pre-treated with TTA given as oral supplements, mixed with daily food pellets, for three weeks to ensure accumulation of the fatty acid analogues in the tissues.
After premedication with 0.5 ml fentanyl (0.315 mg/ml) and fluanisone (10 mg/ml) (Hypnorm®) intramuscularly, the rabbits were anaesthetised by administering diazepam 4 mg/kg intraperitoneally and maintained by additional 0.3–0.4 ml of a 1:1 mixture of Hypnorm® and diazepam, usually necessary once during the procedure.
After local infiltration of the skin by lignocaine (Xylocaine®) and surgical cut-down, the right carotid artery was cannulated by a 6F sheath. A bolus of 100 U/kg of heparin was administered intraarterially. Before the angioplasty, an angiography was performed in the frontal view by injecting 3 ml of ioxaglate (Hexabrix®) as contrast medium via a Berman® catheter.
An angioplasty balloon catheter (Express®) of 2.5 mm was positioned in the proximal part of each iliac artery and balloon angioplasty was performed with 2 balloon inflations at the same site in each artery, at 8 and 12 atmosphere for 30 seconds each to overstretch the artery. The balloon marker, on the middle of the 20 mm long balloon, was placed over the ilio-sacral joint, thus ensuring that the balloon was positioned at identical sites. Inflation was performed using a pressure manometer (Encore® 26 inflation device, Scimed, Boston Scientific corporation).
A further angiography was performed in the same frontal view as the first angiography to assure artery patency. The carotid artery was ligated and the skin was closed with ligatures. Buprenorfin 0.3 mg (Temgesic®) and penicillin were given subcutaneous once daily for the first days.
(§3) A follow-up angiography was performed in the same frontal view after 10 weeks, following the same procedure as indicated above, by using ioxaglate (Hexabrix®) as contrast medium. The sheath was now inserted in the left carotid artery. Intravascular ultrasound was performed to quantitate wall thickness and lumen diameter. After angiography a laparotomy was performed and the abdominal aorta was cannulated with an 18G infusion-needle. The animals were euthanised by giving overdose pentobarbital intraarterially via the sheath in the left carotid artery.
The frames with maximal opacification from baseline angiographies (before and after dilatation), as well as from the follow-up angiography were stored for subsequent quantitative analysis. Arterial diameter before and after dilatation as well as the balloon to artery ratio were measured. The minimal luminal diameter, reference diameter and stenosis were determined. All measurements were performed with a digital electronic calliper (Sandhill, model EC-1)(12). A balloon angioplasty catheter (Express® 2.5 mm), placed on the abdomen and dilated at 8 atmospheres (rated balloon diameter 2.5 mm) served for calibration.
Acute gain: minimal luminal diameter (MLD) post dilatation minus diameter artery before dilatation. Late loss: MLD post dilatation minus MLD at control angiography. Loss index: late loss divided by acute gain.

[7] = tested on: human smooth muscle cells (SMC); assay: Proliferation of cultured smooth muscle cells (cell counting); type: cell-based; settings: 100 μM with BSA, cells counted after 3 and 6 days, FIG. 3
Procedure: SMC are human smooth muscle cells available from American Type Culture Collection (Type 1999-CRL). The SMC cells were cultured in bottles (75 cm^2) in Ham's F12K medium. 24 hours after inoculation, the fatty acids and BSA in a molar ratio of 1:2.5 were added to the medium, i.e. to a final concentration of palmitic acid and TTA of 100 μM. After 3 and 6 days the cells were trypsinated, and the number of cells determined by using a light microscopy with counting chambers (Leitz Wetzler).

[8] = tested on: restenosis (coronary artery, LAD or LCx); assay: Prevention of restenosis in mini pigs, local administration of TTA, quantitative angiography and histology; type: in vivo; settings: minipigs; for Luminal diameter: local TTA 3 x 0.5 ml (0.33 mg/ml)
From the text: (§4) Various local drug delivery systems have been developed to enable local application of pharmacological agents in conjunction with PTCA. In this study 20 minipigs were randomised to placebo or active treatment with the fatty acid analogue tetradecylthioaceticacid acid (TTA) via a Transport® multiphorous angioplasty balloon catheter. This catheter has a sleeve embracing the balloon and the drug is delivered through a separate lumen connected to the sleeve which has multiple holes.
(§5) Coronary balloon angioplasty injury using an oversized balloon was performed to the LAD or LCx followed by 3 bolus deliveries of 0.5 ml (0.33 mg/ml TTA) of active drug/placebo. Quantitative angiography as indicated in the preceding sections was performed before and after injury, and after 4 weeks follow-up. Subsequently the pigs were sacrificed, perfusion-fixed with glutaraldehyde and the vessels prepared for histology with computer assisted planimetry.

[9] = Hepatic and plasma fatty acid composition after TTA administration to rats; type: in vivo; settings: 12 weeks
From the text: Thus the compound of the present invention modifies the composition of the lipids in various tissues.

[10] = 28 days toxicity study in dogs (GLP); type: in vivo
From the text: A 28 days toxicity study in dogs according to GLP guide-lines has been performed by Corning Hazleton (Europe), England. […] Some lipid related parameters were lowered in the animals given high dosages. This is consistent with the pharmacological activity of TTA.

[11] = tested on: mitochondrial β-oxidation system; assay: Mitochondrial β-oxidation
From the text: The studies have shown that TTA has properties very similar to natural fatty acids, the main difference being that TTA is not oxidised by the mitochondrial β-oxidation system.
as §2

[12] = Total plasma homocysteine in rats given TTA; type: in vivo; settings: Male Wistar rats, 300 mg TTA per kg body weight per day in 10 days
Procedure: Increased levels of homocysteine, i.e. hyperhomocysteinemia has been proposed to be associated with arterial diseases, and we thus measured the levels of homocysteine in plasma samples from Male Wistar rats given 300 mg TTA per kg body weight per day in 10 days.
Total plasma homocysteine was measured by a fully automated fluorescence assay. 30 μl plasma was reduced by 30 μl NaBH4/DMSO solution (6 mol/L). After 1.5 min 20 μl of the fluorescence reagent monobromobimane (25 mmol/L) in acetonitrile was added and allowed to react for 3 min. 20 μl of the sample was then immediately analysed with HPLC by injection on a strong cation-exchange column, and then by column switching into a cyclohexyl silica column. The SCX column was eluted isocratically and the CH column was eluted with a linear methanol gradient (17–35% in 5 min) in 20 mmol/L formate buffer. The homocysteine was eluted at a retention time of 4.5 min.

[13] = tested on: mouse lymphoma cells, L5178Y; assay: Mutagenicity in mouse lymphoma cells; type: cell-based; settings: 2.5–50 mg/ml
From the text: as §1

restenosis = assay: IVUS (intravascular ultrasound) after balloon injury; type: in vivo, minipigs
Procedure: as §3, §4, §5
The ICUS (intracoronary ultrasound) results were consistent with the angiography data.

[14] = control angiography (follow-up)
[15] = moderate doses, within days of treatment

## CCCCCCCCCCCCCCSC[14C](=O)O [1-^14C-TTA]
[1]
  presence of active drug in the coronary arteries: confirmed the presence of active drug

## CCCCCCCCCCCCCC[Se]CC(=O)O [TSA, tetradecylselenioacetic acid]
[2]
  induction of mutations: did not induce mutations
[3]
  induction of mutations: did not induce mutations
[4]
  potency in lowering plasma triacylglycerols and cholesterol: far more potent
[5]
  chromosomal aberrations: no aberrations were induced

## Tetradecylthioacetic acid [TTA]
[6]; MLD post dilatation minus MLD at control angiography
  late loss: 0.76 ± 0.38
[6]; MLD post dilatation minus diameter artery before dilatation
  acute gain: 0.48 ± 0.22 mm
[6]; after dilatation
  diameter artery (Ds): 2.36 ± 0.19 mm
  dilatation/stenosis (Dr − Ds)/Dr: −31.2
  reference diameter (Dr): 1.80 ± 0.17 mm
[6]; before dilatation
  diameter artery (Ds): 1.91 ± 0.18 mm
  reference diameter (Dr): 1.91 ± 0.18 mm
[6]; [14]
  diameter artery (Ds): 1.60 ± 0.26 mm
  dilatation/stenosis (Dr − Ds)/Dr: 23.5
  reference diameter (Dr): 2.07 ± 0.15 mm
[6]; follow-up after angioplasty, oral TTA
  decrease in artery diameter at follow-up: inhibited the decrease in artery diameter
[6]; late loss divided by acute gain
  loss index: 1.53 ± 0.46
[7]
  growth of smooth muscle cells: inhibiting effect
[8]; after PTCA
  Luminal diameter: 3.2 mm
[8]; at follow-up
  Luminal diameter: 2.2 mm
[8]; before PTCA
  Luminal diameter: 2.6 mm
[8]; treated group with respect to the placebo group
  maximal intimal thickness: unchanged
[9]
  hepatic and plasma content of monounsaturated fatty acids (mainly oleic acid): nearly doubled
  polyunsaturated fatty acids (mainly linoleic acid and DHA): decreased
[2]
  induction of mutations: did not induce mutations
[3]
  induction of mutations: did not induce mutations
[4]
  potency in lowering plasma triacylglycerols and cholesterol: far more potent
[4]; [15]
  plasma cholesterol levels: decreased
  plasma triacylglycerol levels: decreased
[10]; 500 mg/kg/day
  body weight: body weight loss
[10]; animals given high dosages
  lipid related parameters: lowered
[10]; dose levels of 50 or 500 mg/day/kg
  evidence of toxicity: no evidence of toxicity
[10]; oral, dose levels up to 500 mg/kg/day
  tolerability of oral administration: generally well tolerated
[11]
  oxidation by the mitochondrial β-oxidation system: not oxidised
[12]
  Plasma concentration of homocysteine: 5.4 ± 1.0 µmol/L
[5]
  chromosomal aberrations: no aberrations were induced
[13]
  mutagenicity: not mutagenic
restenosis
  Area site: 0.61 ± 0.152 mm^2
  Max. diameter site: 2.87 ± 0.408 mm
  Minimal diameter site: 2.76 ± 0.381 mm
